Source: paper PMC11740271 (Annals of neurology, 2024)
Where “and” joins values, the source holds several entries; their conditions need not be identical. Identical values can stand only once. Like-named read-outs stand apart in the source and are kept apart here.

Columns and labels:
[1] = system: 6 Hz (44 mA) seizures; test: 6 Hz; assay type: in vivo, mice; conditions: Mus musculus, ip, 1 h, read-out: ED50, 6 Hz (44 mA)
[2] = system: corneal kindled seizures; test: Corneal kindled mouse model; assay type: in vivo, mice; conditions: ip, read-out: ED50, CKM
[3] = system: hippocampal paroxysmal discharges (HPDs); test: Intra-hippocampal kainate mouse; assay type: in vivo; conditions: male mice, 50 mg/kg i.p., 1 h post-drug, mean ± SEM
[4] = system: motor function and coordination; test: Rotarod test in mice; assay type: in vivo; conditions: male mice (C57BL/6J), i.p., PT 0.5 h; 95% CI in parentheses
[5] = Minimal motor impairment; assay type: in vivo, rats; conditions: Sprague-Dawley, rat, in vivo, ip
[6] = system: minimal motor impairment (ataxia); test: Minimal motor impairment; assay type: in vivo, rats; conditions: i.p.
[7] = system: autonomic, neuromuscular, sensorimotor and behavioral functions; test: Modified Irwin test in rats; assay type: in vivo; conditions: male rats, i.p.
[8] = system: GLT-1; test: GLT-1 expression in neuron-glia cultures; assay type: cell-based, rat; conditions: 14 DIV neuron-glia cultures, 72 h
[9] = system: GLT-1; test: GLT-1 expression in mouse hippocampus; assay type: in vivo; conditions: C57BL/6J mice
[10] = system: GLT-1; test: GLT-1 expression in mouse cortex; assay type: in vivo; conditions: C57BL/6 mice
[11] = system: EAAT1; conditions: cited from earlier work
[12] = system: EAAT3; conditions: cited from earlier work
[13] = system: TMEV-induced seizures; conditions: mice; doses as in Table S14; cited from earlier work
[14] = system: corneal kindled seizures; conditions: mice, i.p.; from literature ED50/TD50, ref as in Table S11; cited from earlier work
[15] = system: 6 Hz (44 mA) seizures; conditions: mice, i.p.; from literature ED50/TD50, ref as in Table S11; cited from earlier work

**Q.** Which results are given for `C[C@H](C(=O)NCc1ccccc1)N1C(=O)CCC1=O` [(R)-AS-1, (R)-N-benzyl-2-(2,5-dioxopyrrolidin-1-yl)propanamide]?
**A.** ED50 [1]: 65.9 mg/kg; ED50 ([2]; 1 h): 38.2 mg/kg; ED50 ([2]; […]): 40.5 mg/kg; HPD count as percent of baseline (peak effect) [3]: 52.81 ± 13.45% and ~ 50%; TD50, rotarod test [4]: 168.2 (117.4–242.0) mg/kg; TD50 at […] ([5]; female): > 500 mg/kg; TD50 at 0.5 h ([5]; male): 254 mg/kg; N/F with adverse effects, TOX (MMI) ([6]; female rats, 500 mg/kg, […]): 2/8; abnormal gait, animals affected / tested ([6]; female rats, 500 mg/kg, […]): 3/8; tremors, animals affected / tested ([6]; female rats, 500 mg/kg, […]): 6/8; slight ataxia, share of rats ([6]; female rats, 500 mg/kg, at 0.5 h and 1 h): 12.5%; N/F with adverse effects, TOX (MMI) ([6]; male rats, 300 mg/kg, 1 h): 1/8; N/F with adverse effects, TOX (MMI) ([6]; male rats, 300 mg/kg, […]): 1/8; adverse events at later time points (Irwin test) ([7]; 300 mg/kg, 2, 4, and 24 h): no adverse events; staggering, share of rats (Irwin test) ([7]; 300 mg/kg, 0.5 h, 1/4): 25%; ataxia, share of rats (Irwin test) ([7]; 300 mg/kg, 0.5 h, 2/4): 50%; ataxia, share of rats (Irwin test) ([7]; 300 mg/kg, 1 h, 1/4): 25%; staggering, share of rats (Irwin test) ([7]; 300 mg/kg, 1 h, 2/4): 50%; anesthesia, share of rats (Irwin test) ([7]; 300 mg/kg, […], 2 rats out of 4): 50%; tolerability in the Irwin test ([7]; doses of 100, 150, and 250 mg/kg, all time points): very well tolerated; GLT-1 protein expression (Western blotting) ([8]; 100 nM and 100 μM): did not alter; GLT-1 expression in the hippocampus (qualitative confocal microscopy) ([9]; 100 mg/kg i.p. BID for 7 days): did not alter; GLT-1 protein expression in brain lysates (quantitative Western blot) ([10]; 100 mg/kg i.p. BID for 7 days): did not show any alteration; interaction with EAAT1 [11]: does not interact; interaction with EAAT3 [12]: does not interact

**Q.** For `C=C(C)[C@@H]1CCC(C)=C[C@H]1c1c(O)cc(CCCCC)cc1O` [Cannabidiol], which “effect in the TMEV model” value [13] is on record?
**A.** effectively reduced TMEV-induced seizures

**Q.** With `NC(=O)N1c2ccccc2C=Cc2ccccc21` [Carbamazepine] as the molecule, how does the “effect in the TMEV model” value [13] read?
**A.** ineffective

**Q.** Which “PI, CKM (reference ASMs)” value [14] does the source give for `CCOC(=O)Nc1ccc(NCc2ccc(F)cc2)cc1N` [Ezogabine] here?
**A.** 1.5

**Q.** For `COC[C@@H](NC(C)=O)C(=O)NCc1ccccc1` [Lacosamide], which “effect in the TMEV model” value [13] is on record?
**A.** significantly reduced seizure burden

**Q.** Which “PI, CKM (reference ASMs)” value [14] does the source give for `Nc1nnc(-c2cccc(Cl)c2Cl)c(N)n1` [Lamotrigine] here?
**A.** 1.0

**Q.** What about the “effect in the TMEV model” value [13] of the same molecule?
**A.** ineffective

**Q.** For `CC[C@@H](C(N)=O)N1CCCC1=O` [Levetiracetam], which “effect in the TMEV model” value [13] is on record?
**A.** significantly reduced seizure burden

**Q.** With `Cc1ccsc1C(=CCCN1CCC[C@@H](C(=O)O)C1)c1sccc1C` [Tiagabine] as the molecule, how does the “PI, 6 Hz, 44 mA (reference ASMs)” value [15] read?
**A.** 6

**Q.** What about the “effect in the TMEV model” value [13] of the same molecule?
**A.** significantly reduced seizure burden

**Q.** Which “effect in the TMEV model” value [13] does the source give for `CCCC(CCC)C(=O)O` [Valproate] here?
**A.** significantly reduced seizure burden

**Q.** For `CN(C)CCC=C1c2ccccc2CCc2ccccc21` [amitriptyline, reference compound], which “GLT-1 signal in the hippocampus (qualitative confocal microscopy)” value ([9]; 10 mg/kg i.p. QD for 7 days) is on record?
**A.** strong increase

**Q.** And the “GLT-1 protein expression in brain lysates (quantitative Western blot)” value ([10]; 10 mg/kg i.p. for 7 days, P < 0.05)?
**A.** significant increase

**Q.** With `CO/N=C(\C(=O)N[C@@H]1C(=O)N2C(C(=O)O)=C(CSc3nc(=O)c(=O)[nH]n3C)CS[C@H]12)c1csc(N)n1` [ceftriaxone, reference compound] as the molecule, how does the “GLT-1 protein expression (Western blotting)” value ([8]; 1 mM) read?
**A.** significantly increased
